Measured values reported in patent US20150010630A1, “FUNCTIONALIZATION OF BIOMATERIALS TO CONTROL REGENERATION AND INFLAMMATION RESPONSES” (TRUSTEES OF TUFTS COLLEGE, priority 2011, published 2015).
Read-outs that look alike come from different tables or passages of the source.

Experiments:
THP1 macrophages [1] = assay: RT-PCR gene expression (TNF-α, TGF-β, IL-10) of THP1 macrophages on SP1 particles
THP1 macrophages [2] = test system: THP1 macrophages
Description: The number of cells was determined, e.g., by counting the cells at the beginning of the experiment and by using the alamar blue method after the seeding. On the day the cells were seeded at the appropriate number, phorbo112-myristate 13-acetate (PMA) was added to the media at a final concentration of about 100 ng/ml to differentiate the THP-1 monocytes into THP-1 macrophages.

THP1 macrophages [3] = assay: TNF-α release (ELISA) from THP1 macrophages seeded on SP1 particles, LPS plus drug; type: cell-based, human
Description: To assess inflammatory response, a large screen of cytokines and chemokines expressed and produced by THP1 differentiated cells and primary Mφs and DCs were analyzed. Their production and release into the media environment were evaluated using an ELISA sandwich technique. […] TNF-α cytokine release was selected in the experiments described herein because it is the common proinflammatory cytokine produced by Mφs as well as DCs. However, other inflammation-associated cytokines can also be measured.

primary macrophages [4] = assay: TNF-α release (ELISA) from primary macrophages on SP0.5 particles; type: cell-based, human; conditions: dexamethasone ~25 to ~1.5625 μg/ml both time points; simvastatin about 250 to about 31.25 μg/ml at 1 day; nicotine either time point
primary macrophages [5] = assay: RT-PCR gene expression (TNF-α, IL-1RA, IL-10) of primary macrophages on SP0.5 particles; type: cell-based, human; conditions: 1 day
primary dendritic cells [6] = assay: TNF-α release (ELISA) from primary dendritic cells on SP0.5 particles; type: cell-based, human; conditions: various concentrations, both time points
primary dendritic cells [7] = assay: RT-PCR gene expression (IL-1β, IL-1RA, IL-8) of primary dendritic cells on SP0.5 particles; type: cell-based, human
THP-1 monocytes = assay: M1/M2 macrophage marker expression in THP-1 monocytes cultured on silk films functionalized with macrophage-skewing agent; type: cell-based, human
[8] = Release of INF-γ from INF-γ embedded silk films (ELISA); type: physicochemical
Description: An ELISA was run to show the release rate of INF-γ from the silk films. The films were made from a silk fibroin solution of about 10 μg/m and 0.2 ml used per film (for a total loading of about 2 μg INF-γ). Within one hour a large amount of INF-γ is released but as a percentage of the total loading it is small and by 4 days more INF-γ is released showing that there is a continued or constant release of INF-γ. While the levels of INF-γ release are low, they are physiologically relevant.
FIG. 23 is a line graph showing the release rate of INF-γ from the silk films. The silk films were made from a silk solution at a concentration of about 10 μg/m and about 0.2 ml of the silk solution was used per film (with a loading of about 2 μg INF-γ). As shown in the table of FIG. 23, within one hour an amount of about […] INF-γ was released, which is about 0.02% of the total loading. […] While the levels of INF-γ release appeared to be low, the level is physiologically relevant.

[9] = about 10 μg/ml INF-γ in silk films

Molecule: C[C@@H]1C[C@H]2[C@@H]3CCC4=CC(=O)C=C[C@]4(C)[C@@]3(F)[C@@H](O)C[C@]2(C)[C@@]1(O)C(=O)CO [dexamethasone]
- IL-10 fold change in expression (relative to positive control) (THP1 macrophages [1]; 1 day, dexamethasone about 12.5 μg/ml): above 1 fold

Molecule: CN1CCCC1c1cccnc1 (centres unmarked) [nicotine]
- cytotoxicity (in words) (THP1 macrophages [2]; dexamethasone ~100 and ~50 μg/ml, simvastatin 250 μg/ml, nicotine 3 mg/ml, both time points): cytotoxic
- cytotoxicity (in words) (THP1 macrophages [2]; nicotine ~1.5 mg/ml, 3 days): cytotoxic
- effect on cell number versus positive and negative controls (THP1 macrophages [2]; non-cytotoxic nicotine concentrations): proliferative effect
- TNF-α release compared to positive control (LPS), high concentrations (THP1 macrophages [3]; dexamethasone ~100 and ~50 μg/ml, simvastatin higher concentration, nicotine above 750 μg/ml, both time points): more TNF-α was released than the positive control
- TNF-α release compared to LPS control (primary macrophages [4]): no significant decrease
- TNF-α gene expression (primary macrophages [5]; dexamethasone, simvastatin 125 to 31.25 μg/ml, nicotine 187.5 and 93.75 μg/ml): downregulated
- IL-10 gene expression (primary macrophages [5]; dexamethasone, simvastatin, nicotine about 750 to about 275 μg/ml): high
- IL-1RA gene expression (primary macrophages [5]; simvastatin, nicotine about 750 to about 275 μg/ml): high
- TNF-α release compared to LPS control (primary dendritic cells [6]): the same as observed with macrophages
- gene expression profile (anti-inflammatory or not) (primary dendritic cells [7]; 1 day, dexamethasone various concentrations, simvastatin ~62.5 μg/ml, nicotine about 46.87 to about 187.5 μg/ml): no anti-inflammatory profile
- gene expression profile (anti-inflammatory or not) (primary dendritic cells [7]; 5 days): no anti-inflammatory profile
- IL-10 gene expression (THP1 macrophages [1]; 1 day, dexamethasone vs media control, simvastatin vs positive control, nicotine vs controls): unregulated
- TGF-β gene expression (THP1 macrophages [1]; 3 days, dexamethasone all concentrations except ~25 μg/ml, nicotine compared to same concentrations at 1 day): downregulated
- TNF-α gene expression (THP1 macrophages [1]; 3 days, dexamethasone vs LPS control, nicotine vs negative control): higher than the negative control
- IL-10 gene expression (THP1 macrophages [1]; 3 days, nicotine compared to same concentrations at 1 day): downregulated

Molecule: CCC(C)(C)C(=O)O[C@H]1C[C@@H](C)C=C2C=C[C@H](C)[C@H](CC[C@@H]3C[C@@H](O)CC(=O)O3)[C@H]21 [simvastatin]
- TNF-α release (THP1 macrophages [3]; simvastatin ~31.5 μg/ml and less): about 0.07 pg/ml

Molecule: INF-γ: interferon-gamma loaded or embedded in silk films
- CCL-18 (M2 macrophage marker) (THP-1 monocytes; [9]): upregulated
- CD206 (M2 macrophage marker) relative to control (THP-1 monocytes; [9]): strongly downregulated
- markers of M1 macrophage (CCL3 and CCR7) (THP-1 monocytes; about 10 μg/ml INF-γ loaded or embedded in silk films): up-regulated

B1: INF-γ: interferon-gamma loaded or embedded in silk films (protein, UniProt P01579 24-161, looked up)
Interferon gamma: QDPYVKEAENLKKYFNAGHSDVADNGTLFLGILKNWKEESDRKIMQSQIVSFYFKLFKNFKDDQSIQKSVETIKEDMNVKFFNSNKKKRDDFEKLTNYSVTDLNVQRKAIHELIQVMAELSPAAKTGKRKRSQMLFRG
- continued INF-γ release ([8]; by day 4): More INF-γ was released
- INF-γ released as share of the total loading ([8]; within one hour): about 0.02%
- amount of INF-γ released from silk film ([8]; within one hour, loading about 2 μg INF-γ per film): about 400 μg/ml
